Data reported in patent US20130136740A1, “METHODS OF TREATING CANCER” (priority 2011, published 2013).

Test: Serum phosphate in rats
Type: in vivo, Sprague Dawley rats
Conditions: daily dosing 50 mg/kg/day oral gavage, at 24 hour or 1 week
Description: FGFR1-ECD.339-Fc binds to the mitogenic FGFs with 10 to 100-fold higher affinity than to FGF-23. […] The potential biological impact of this relatively weak FGFR1-ECD.339-Fc/FGF-23 binding was investigated in rats following four weekly doses of FGFR1-ECD.339-Fc at a dose range of 10-200 mg/kg/qwk.
In the first experiment, Sprague Dawley rats (Charles River Labs; N=5/group) were dosed with vehicle, 10, 50 or 200 mg/kg/qwk of FGFR1-ECD.339-Fc for four weekly doses and plasma concentrations of FGFR1-ECD.339-Fc were determined throughout the study by an ELISA based detection method.
In the second experiment, Sprague Dawley rats (Charles River Labs; N=5/group) were administered the FGFR kinase inhibitor PD173074 (Chemdea, Ridgewood, N.J.; 50 mg/kg/day) or vehicle control by oral gavage for 7 days; or were administered FGFR1-ECD.339-Fc (200 mg/kg) or appropriate vehicle weekly by intravenous administration. Blood samples were collected at the time points indicated and serum phosphate was determined at 24 and 168 hours post-initiation of dosing (Idexx laboratories, Westbrook, Mass.).

- plasma phosphate levels: significantly elevated
SMILES: CCN(CC)CCCCNc1ncc2cc(-c3cc(OC)cc(OC)c3)c(NC(=O)NC(C)(C)C)nc2n1 [PD173043, reference compound]
